Reference: ChEMBL document CHEMBL1777692, “Elucidation of common pharmacophores from analysis of targeted metabolites transported by the multispecific drug transporter-Organic anion transporter1 (Oat1)” (Bioorg Med Chem, 2011)

Legend:
[1] = biological target: T1, Solute carrier family 22 member 6 (Rattus norvegicus, UniProt O35956); experiment: Inhibition of rat Oat1 expressed in Xenopus oocytes; assay type: cell-based, Oocyte
T1 sequence (O35956 whole entry): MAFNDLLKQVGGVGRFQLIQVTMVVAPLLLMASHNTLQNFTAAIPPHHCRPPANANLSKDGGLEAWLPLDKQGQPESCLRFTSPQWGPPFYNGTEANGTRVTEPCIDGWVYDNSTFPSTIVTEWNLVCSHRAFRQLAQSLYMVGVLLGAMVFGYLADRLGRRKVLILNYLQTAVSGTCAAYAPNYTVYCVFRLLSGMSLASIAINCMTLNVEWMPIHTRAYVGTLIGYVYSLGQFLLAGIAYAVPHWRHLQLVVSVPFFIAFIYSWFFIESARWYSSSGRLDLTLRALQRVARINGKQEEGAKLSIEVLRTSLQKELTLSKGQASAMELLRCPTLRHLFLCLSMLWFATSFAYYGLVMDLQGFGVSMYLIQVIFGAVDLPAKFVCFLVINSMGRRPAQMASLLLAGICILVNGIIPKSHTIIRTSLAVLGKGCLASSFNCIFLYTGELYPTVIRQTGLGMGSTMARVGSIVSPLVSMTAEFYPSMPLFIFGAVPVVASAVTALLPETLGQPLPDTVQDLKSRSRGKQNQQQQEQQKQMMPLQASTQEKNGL

[2] = biological target: T1, Solute carrier family 22 member 6; experiment: Inhibition of rat Oat1 expressed in pig […] cells; assay type: cell-based

| Ki [1] [µM] | Ki [2] [µM] | Structure (SMILES) |
| --- | --- | --- |
| 1100 | – | CCSC[C@H](NC(C)=O)C(=O)O |
| – | > 100 | CCc1cccc2c3c([nH]c12)C(CC)(CC(=O)O)OCC3 (centres undefined) [ETODOLAC] |
| – | 52 | CC[C@H](C)C(=O)O[C@H]1C[C@H](O)C=C2C=C[C@H](C)[C@H](CC[C@@H](O)C[C@@H](O)CC(=O)O)[C@H]21 [PRAVASTATIN] |

| Structure (SMILES) | Ki [1] [µM] | Ki [2] [µM] |
| --- | --- | --- |
| C[C@]12CC[C@@H]3c4ccc(O)cc4CC[C@H]3[C@@H]1CC[C@@H]2O[C@@H]1O[C@H](C(=O)O)[C@@H](O)[C@H](O)[C@H]1O [ESTRADIOL 17B GLUCURONIDE] | – | > 300 |
